# Laboratory results as given in ChEMBL document CHEMBL3991601, “The target landscape of clinical kinase drugs” (Science, 2017).
# Calls of active or inactive are those of the source. For most assays here, no stated cut-off is given here; in the data, actives have a measured Kd and inactives only a lower limit.
# Legend:
# Activin receptor type-1B = molecular target: T1, Activin receptor type-1B (Homo sapiens, UniProt P36896)
# T1 sequence (P36896 whole entry): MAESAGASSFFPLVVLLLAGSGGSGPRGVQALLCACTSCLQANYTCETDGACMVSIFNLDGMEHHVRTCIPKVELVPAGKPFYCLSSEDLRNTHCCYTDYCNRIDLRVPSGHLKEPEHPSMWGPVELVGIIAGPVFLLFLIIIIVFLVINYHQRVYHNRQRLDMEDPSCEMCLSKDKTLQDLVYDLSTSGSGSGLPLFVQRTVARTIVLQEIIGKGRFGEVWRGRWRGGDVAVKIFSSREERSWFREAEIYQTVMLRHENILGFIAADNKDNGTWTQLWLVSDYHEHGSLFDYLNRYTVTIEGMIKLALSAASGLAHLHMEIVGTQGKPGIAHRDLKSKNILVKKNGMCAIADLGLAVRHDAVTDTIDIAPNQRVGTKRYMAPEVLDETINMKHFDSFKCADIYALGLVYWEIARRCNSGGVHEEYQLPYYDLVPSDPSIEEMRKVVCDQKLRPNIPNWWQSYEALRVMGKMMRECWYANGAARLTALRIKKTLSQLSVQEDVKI
# [1] = molecular target: Mitotic checkpoint serine/threonine-protein kinase BUB1 (Homo sapiens, UniProt O43683)
# [2] = molecular target: Dual specificity mitogen-activated protein kinase kinase 2 (Homo sapiens, UniProt P36507)
# Dual specificity mitogen-activated protein kinase kinase 2, sequence (P36507 whole entry): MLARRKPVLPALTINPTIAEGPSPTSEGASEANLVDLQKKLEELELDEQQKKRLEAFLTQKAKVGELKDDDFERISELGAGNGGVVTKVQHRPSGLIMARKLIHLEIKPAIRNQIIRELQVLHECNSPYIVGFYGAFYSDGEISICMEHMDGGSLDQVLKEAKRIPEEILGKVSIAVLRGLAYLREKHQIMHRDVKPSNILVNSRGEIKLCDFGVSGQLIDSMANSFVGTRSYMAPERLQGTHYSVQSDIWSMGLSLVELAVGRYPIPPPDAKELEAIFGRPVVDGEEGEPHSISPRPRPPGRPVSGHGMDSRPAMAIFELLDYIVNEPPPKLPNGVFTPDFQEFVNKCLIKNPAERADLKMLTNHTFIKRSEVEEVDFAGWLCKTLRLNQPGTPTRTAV
# [3] = molecular target: T2, Mitogen-activated protein kinase kinase kinase 5 (Homo sapiens, UniProt Q99683)
# T2 sequence (Q99683 whole entry): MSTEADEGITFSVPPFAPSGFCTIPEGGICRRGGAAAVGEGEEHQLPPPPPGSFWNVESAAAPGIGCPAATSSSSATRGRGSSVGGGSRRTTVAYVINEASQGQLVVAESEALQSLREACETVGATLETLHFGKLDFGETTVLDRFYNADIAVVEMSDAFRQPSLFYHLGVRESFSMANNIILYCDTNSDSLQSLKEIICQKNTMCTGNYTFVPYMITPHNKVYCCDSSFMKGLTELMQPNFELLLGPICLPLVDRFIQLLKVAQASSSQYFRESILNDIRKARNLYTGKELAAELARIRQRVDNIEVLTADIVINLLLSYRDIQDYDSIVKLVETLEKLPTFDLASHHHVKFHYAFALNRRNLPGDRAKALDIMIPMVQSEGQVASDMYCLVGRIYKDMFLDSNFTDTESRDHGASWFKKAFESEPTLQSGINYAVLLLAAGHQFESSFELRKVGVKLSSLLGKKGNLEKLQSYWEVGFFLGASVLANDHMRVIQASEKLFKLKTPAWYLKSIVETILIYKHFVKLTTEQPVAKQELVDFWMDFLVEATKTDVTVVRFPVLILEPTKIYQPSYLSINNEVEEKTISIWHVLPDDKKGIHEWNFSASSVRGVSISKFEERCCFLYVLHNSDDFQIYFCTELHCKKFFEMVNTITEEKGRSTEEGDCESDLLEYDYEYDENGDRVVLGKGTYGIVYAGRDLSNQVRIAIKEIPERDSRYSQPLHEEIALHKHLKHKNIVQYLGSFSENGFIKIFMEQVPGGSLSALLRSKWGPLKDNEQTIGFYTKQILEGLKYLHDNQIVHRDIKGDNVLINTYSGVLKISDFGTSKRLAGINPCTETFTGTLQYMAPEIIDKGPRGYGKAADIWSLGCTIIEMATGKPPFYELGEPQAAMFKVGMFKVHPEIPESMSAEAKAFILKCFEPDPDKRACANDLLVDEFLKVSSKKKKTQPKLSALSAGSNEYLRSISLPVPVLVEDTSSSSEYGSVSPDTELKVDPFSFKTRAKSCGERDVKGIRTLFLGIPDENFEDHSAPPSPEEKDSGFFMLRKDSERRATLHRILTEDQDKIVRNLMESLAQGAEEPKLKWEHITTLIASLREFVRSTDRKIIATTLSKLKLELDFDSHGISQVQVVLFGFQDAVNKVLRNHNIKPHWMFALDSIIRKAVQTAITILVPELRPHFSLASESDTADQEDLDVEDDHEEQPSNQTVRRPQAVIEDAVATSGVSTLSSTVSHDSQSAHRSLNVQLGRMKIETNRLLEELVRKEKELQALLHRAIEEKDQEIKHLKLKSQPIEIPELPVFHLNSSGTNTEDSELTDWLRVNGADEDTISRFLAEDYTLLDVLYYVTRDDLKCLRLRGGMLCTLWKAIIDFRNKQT
# [4] = molecular target: Phosphatidylethanolamine-binding protein 1 (Homo sapiens, UniProt P30086)
# Phosphatidylethanolamine-binding protein 1, sequence (P30086 whole entry): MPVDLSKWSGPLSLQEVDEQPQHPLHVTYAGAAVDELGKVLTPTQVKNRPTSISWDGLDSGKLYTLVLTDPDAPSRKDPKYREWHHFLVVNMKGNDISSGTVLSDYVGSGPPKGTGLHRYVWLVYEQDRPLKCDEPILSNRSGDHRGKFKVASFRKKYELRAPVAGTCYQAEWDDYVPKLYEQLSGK
# Focal adhesion kinase 1 = Focal adhesion kinase 1 (Homo sapiens, UniProt Q05397)
# Focal adhesion kinase 1, sequence (Q05397 whole entry): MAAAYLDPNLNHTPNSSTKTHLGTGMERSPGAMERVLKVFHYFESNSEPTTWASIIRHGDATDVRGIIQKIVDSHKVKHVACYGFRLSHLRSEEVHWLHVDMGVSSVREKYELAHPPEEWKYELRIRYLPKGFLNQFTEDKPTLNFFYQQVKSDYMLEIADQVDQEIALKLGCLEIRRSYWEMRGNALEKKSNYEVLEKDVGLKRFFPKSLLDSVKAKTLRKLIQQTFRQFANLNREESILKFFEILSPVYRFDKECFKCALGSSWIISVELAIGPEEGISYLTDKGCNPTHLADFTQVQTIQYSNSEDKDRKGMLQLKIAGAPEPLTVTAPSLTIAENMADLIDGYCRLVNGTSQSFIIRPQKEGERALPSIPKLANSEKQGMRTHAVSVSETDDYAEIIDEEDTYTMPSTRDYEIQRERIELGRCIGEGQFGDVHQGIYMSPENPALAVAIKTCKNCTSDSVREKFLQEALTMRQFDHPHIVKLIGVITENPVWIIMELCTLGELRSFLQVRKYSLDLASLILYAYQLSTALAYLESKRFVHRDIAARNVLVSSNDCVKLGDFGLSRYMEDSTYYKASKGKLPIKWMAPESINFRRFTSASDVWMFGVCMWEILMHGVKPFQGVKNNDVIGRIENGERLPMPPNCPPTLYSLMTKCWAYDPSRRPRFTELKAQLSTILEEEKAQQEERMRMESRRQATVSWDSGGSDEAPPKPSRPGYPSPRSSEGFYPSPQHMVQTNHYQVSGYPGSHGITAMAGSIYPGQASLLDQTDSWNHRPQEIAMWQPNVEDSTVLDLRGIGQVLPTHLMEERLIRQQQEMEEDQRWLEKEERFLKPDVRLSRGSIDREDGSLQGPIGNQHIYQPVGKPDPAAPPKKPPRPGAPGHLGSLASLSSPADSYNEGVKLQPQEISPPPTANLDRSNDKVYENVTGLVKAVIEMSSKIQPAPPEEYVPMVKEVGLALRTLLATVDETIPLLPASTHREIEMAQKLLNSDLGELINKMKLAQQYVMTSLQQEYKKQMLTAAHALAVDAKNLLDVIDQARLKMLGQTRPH
# [5] = molecular target: U5 small nuclear ribonucleoprotein 200 kDa helicase (Homo sapiens, UniProt O75643)
# U5 small nuclear ribonucleoprotein 200 kDa helicase, sequence (O75643 whole entry): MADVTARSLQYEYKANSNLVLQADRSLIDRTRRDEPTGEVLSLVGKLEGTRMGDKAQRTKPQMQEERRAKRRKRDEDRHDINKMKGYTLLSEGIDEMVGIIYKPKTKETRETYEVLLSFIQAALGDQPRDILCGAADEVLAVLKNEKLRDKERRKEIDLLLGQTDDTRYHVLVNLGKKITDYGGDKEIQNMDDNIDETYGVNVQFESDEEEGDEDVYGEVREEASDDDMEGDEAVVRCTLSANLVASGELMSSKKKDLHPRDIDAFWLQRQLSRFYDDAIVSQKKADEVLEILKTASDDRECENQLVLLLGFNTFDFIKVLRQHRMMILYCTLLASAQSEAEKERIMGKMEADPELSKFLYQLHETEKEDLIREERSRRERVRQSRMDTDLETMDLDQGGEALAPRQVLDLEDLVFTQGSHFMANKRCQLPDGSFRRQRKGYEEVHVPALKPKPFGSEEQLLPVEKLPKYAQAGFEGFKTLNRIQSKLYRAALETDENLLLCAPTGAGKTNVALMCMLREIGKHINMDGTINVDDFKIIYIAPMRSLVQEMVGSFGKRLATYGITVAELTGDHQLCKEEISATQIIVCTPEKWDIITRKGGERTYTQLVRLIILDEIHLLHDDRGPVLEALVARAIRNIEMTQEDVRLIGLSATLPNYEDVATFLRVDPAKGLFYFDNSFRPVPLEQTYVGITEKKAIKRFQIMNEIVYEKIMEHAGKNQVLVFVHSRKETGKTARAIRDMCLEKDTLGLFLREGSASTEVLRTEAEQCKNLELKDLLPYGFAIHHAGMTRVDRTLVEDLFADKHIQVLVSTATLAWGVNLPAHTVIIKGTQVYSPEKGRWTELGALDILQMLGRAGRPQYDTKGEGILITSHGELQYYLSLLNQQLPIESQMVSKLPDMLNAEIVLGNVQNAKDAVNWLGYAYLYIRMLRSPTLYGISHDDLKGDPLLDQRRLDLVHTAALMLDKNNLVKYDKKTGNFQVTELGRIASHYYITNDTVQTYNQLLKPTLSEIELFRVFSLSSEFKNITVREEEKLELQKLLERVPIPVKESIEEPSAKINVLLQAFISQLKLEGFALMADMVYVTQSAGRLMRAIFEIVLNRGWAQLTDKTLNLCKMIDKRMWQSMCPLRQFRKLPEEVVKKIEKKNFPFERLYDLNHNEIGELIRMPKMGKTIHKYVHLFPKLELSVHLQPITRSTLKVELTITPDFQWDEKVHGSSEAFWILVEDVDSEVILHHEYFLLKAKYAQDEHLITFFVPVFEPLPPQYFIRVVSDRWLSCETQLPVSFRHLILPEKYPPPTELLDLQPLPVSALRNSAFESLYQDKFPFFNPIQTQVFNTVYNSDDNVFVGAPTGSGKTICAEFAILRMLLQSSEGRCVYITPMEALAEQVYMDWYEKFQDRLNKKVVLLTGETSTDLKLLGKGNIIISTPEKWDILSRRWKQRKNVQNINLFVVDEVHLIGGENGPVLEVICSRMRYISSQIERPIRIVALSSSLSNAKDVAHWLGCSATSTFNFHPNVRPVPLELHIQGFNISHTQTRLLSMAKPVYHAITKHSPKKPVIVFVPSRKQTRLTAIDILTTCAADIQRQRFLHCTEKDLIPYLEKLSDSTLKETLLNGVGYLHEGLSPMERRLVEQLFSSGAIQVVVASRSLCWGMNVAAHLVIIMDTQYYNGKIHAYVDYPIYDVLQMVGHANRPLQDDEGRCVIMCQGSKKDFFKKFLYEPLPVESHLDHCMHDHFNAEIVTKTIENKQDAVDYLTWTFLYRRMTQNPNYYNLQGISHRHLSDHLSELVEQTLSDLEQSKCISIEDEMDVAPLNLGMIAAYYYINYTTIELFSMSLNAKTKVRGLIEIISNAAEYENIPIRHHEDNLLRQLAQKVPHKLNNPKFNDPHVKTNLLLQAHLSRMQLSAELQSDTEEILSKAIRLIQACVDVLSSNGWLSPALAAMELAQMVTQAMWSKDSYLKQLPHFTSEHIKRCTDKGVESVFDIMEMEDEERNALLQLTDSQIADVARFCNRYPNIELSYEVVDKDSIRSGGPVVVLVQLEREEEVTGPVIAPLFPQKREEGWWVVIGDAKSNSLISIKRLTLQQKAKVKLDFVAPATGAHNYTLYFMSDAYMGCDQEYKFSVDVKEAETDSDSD
# [6] = molecular target: Tyrosine-protein kinase Yes (Homo sapiens, UniProt P07947)
# Tyrosine-protein kinase Yes, sequence (P07947 whole entry): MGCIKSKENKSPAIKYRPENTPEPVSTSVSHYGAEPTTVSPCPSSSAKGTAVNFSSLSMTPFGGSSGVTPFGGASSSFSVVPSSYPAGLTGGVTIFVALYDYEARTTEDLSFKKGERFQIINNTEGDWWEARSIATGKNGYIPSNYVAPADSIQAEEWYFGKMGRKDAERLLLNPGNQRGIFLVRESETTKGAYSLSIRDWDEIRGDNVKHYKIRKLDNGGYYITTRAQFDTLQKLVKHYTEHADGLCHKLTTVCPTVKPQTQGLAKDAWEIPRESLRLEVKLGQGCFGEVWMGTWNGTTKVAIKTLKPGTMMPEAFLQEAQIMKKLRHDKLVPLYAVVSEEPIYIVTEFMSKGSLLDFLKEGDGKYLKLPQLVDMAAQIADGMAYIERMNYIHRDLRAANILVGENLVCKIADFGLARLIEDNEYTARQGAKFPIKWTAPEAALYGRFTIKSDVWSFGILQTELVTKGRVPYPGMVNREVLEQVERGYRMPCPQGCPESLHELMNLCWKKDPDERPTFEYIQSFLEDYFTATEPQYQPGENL
Compound,Kd (Activin receptor type-1B),Kd [1],Kd [2],Kd [3],Kd [4],Kd (Focal adhesion kinase 1),Kd [5],Kd [6]
C[C@@H](Oc1cc(C(=O)Nc2ccc(C(=O)N3CCN(C)CC3)cc2)nnc1N)c1c(Cl)ccc(F)c1Cl,> 30 µM (inactive),> 30 µM (inactive),> 30 µM (inactive),> 30 µM (inactive),> 30 µM (inactive),> 30 µM (inactive),> 30 µM (inactive),> 30 µM (inactive)
CC(=O)c1cnc2ccc(-c3cc(Cl)c(O)c(Cl)c3)nc2c1N[C@H]1CC[C@H](CN(C)C)CC1,,> 30 µM (inactive),> 30 µM (inactive),0.878 µM (active),> 30 µM (inactive),0.118 µM (active),> 30 µM (inactive),> 30 µM (inactive)
C=CC(=O)N1CCC[C@H](n2c(=O)n(-c3ccc(Oc4ccccc4)cc3)c3c(N)ncnc32)C1,> 30 µM (inactive),> 30 µM (inactive),> 30 µM (inactive),> 30 µM (inactive),> 30 µM (inactive),> 30 µM (inactive),> 30 µM (inactive),0.005 µM
Cc1nc2cc(-c3nn(C(C)C)c4ncnc(N)c34)ccc2o1,0.767 µM (active),> 30 µM (inactive),1.92 µM (active),> 30 µM (inactive),> 30 µM (inactive),> 30 µM (inactive),> 30 µM (inactive),> 30 µM (inactive)
COCc1c(-c2ccc(NC(=O)Nc3cc(C(F)(F)F)ccc3F)c(F)c2)c2c(N)ncnn2c1CN1CCOCC1,> 30 µM (inactive),> 30 µM (inactive),> 30 µM (inactive),> 30 µM (inactive),> 30 µM (inactive),> 30 µM (inactive),> 30 µM (inactive),> 30 µM (inactive)
Cc1nc(NC(=O)N2CCC[C@H]2C(N)=O)sc1-c1ccnc(C(C)(C)C(F)(F)F)c1 [ALPELISIB],> 30 µM (inactive),,> 30 µM (inactive),> 30 µM (inactive),> 30 µM (inactive),> 30 µM (inactive),> 30 µM (inactive),> 30 µM (inactive)
Cc1csc(-c2nnc(Nc3ccc(Oc4ncccc4-c4ccnc(N)n4)cc3)c3ccccc23)c1 [AMG-900],> 30 µM (inactive),> 30 µM (inactive),3.49 µM (active),2.79 µM (active),> 30 µM (inactive),> 30 µM (inactive),> 30 µM (inactive),> 30 µM (inactive)
COc1cc([C@@H]2c3cc4c(cc3[C@H](O)[C@H]3COC(=O)[C@@H]23)OCO4)cc(OC)c1OC [AXL-1717],> 30 µM (inactive),> 30 µM (inactive),> 30 µM (inactive),> 30 µM (inactive),> 30 µM (inactive),> 30 µM (inactive),> 30 µM (inactive),> 30 µM (inactive)
Cn1cnc2c(F)c(Nc3ccc(Br)cc3F)c(C(=O)NOCCO)cc21 [BINIMETINIB],> 30 µM (inactive),> 30 µM (inactive),0.036 µM (active),> 30 µM (inactive),> 30 µM (inactive),> 30 µM (inactive),> 30 µM (inactive),> 30 µM (inactive)
CCn1c(C(=O)N(C2CC2)C2CC2)cc2c3c(ncn3C)c(Nc3cc(C)n(C)n3)nc21 [BMS-911543],> 30 µM (inactive),> 30 µM (inactive),> 30 µM (inactive),> 30 µM (inactive),> 30 µM (inactive),> 30 µM (inactive),> 30 µM (inactive),> 30 µM (inactive)
COc1cc2ncnc(Oc3cccc(NC(=O)Nc4cc(C(C)(C)C(F)(F)F)on4)c3)c2cc1OC [CEP-32496],> 30 µM (inactive),> 30 µM (inactive),> 30 µM (inactive),> 30 µM (inactive),> 30 µM (inactive),> 30 µM (inactive),> 30 µM (inactive),> 30 µM (inactive)
COc1c(OCCCN2CCOCC2)ccc2c1N=C(NC(=O)c1cnc(N)nc1)N1CCN=C21 [COPANLISIB],> 30 µM (inactive),> 30 µM (inactive),> 30 µM (inactive),> 30 µM (inactive),> 30 µM (inactive),> 30 µM (inactive),> 30 µM (inactive),> 30 µM (inactive)
COCC(=O)NC/C=C/c1ccc2ncnc(Nc3ccc(Oc4ccc(C)nc4)c(C)c3)c2c1 [CP-724714],> 30 µM (inactive),> 30 µM (inactive),> 30 µM (inactive),> 30 µM (inactive),> 30 µM (inactive),> 30 µM (inactive),> 30 µM (inactive),> 30 µM (inactive)
C#Cc1cccc(Nc2ncnc3cc(OC)c(OCCCCCCC(=O)NO)cc23)c1 [CUDC-101],> 30 µM (inactive),0.961 µM (active),> 30 µM (inactive),> 30 µM (inactive),> 30 µM (inactive),> 30 µM (inactive),> 30 µM (inactive),> 30 µM (inactive)
Cc1nc2cc(-n3ncc(C(=O)c4cc5ccccc5[nH]4)c3N)ccc2[nH]1 [FGFR INHIBITOR DEBIO 1347],> 30 µM (inactive),> 30 µM (inactive),> 30 µM (inactive),> 30 µM (inactive),> 30 µM (inactive),> 30 µM (inactive),> 30 µM (inactive),> 30 µM (inactive)
O=C(Nc1nc2cccc(-c3ccc(CN4CCS(=O)(=O)CC4)cc3)n2n1)C1CC1 [FILGOTINIB],> 30 µM (inactive),> 30 µM (inactive),> 30 µM (inactive),> 30 µM (inactive),> 30 µM (inactive),> 30 µM (inactive),> 30 µM (inactive),> 30 µM (inactive)
Cc1cccc(-c2nn3c(c2-c2ccnc4ccc(C(N)=O)cc24)CCC3)n1 [GALUNISERTIB],0.016 µM (active),> 30 µM (inactive),> 30 µM (inactive),> 30 µM (inactive),> 30 µM (inactive),> 30 µM (inactive),> 30 µM (inactive),> 30 µM (inactive)
COc1ncc(-c2ccc3nccc(-c4ccnnc4)c3c2)cc1NS(=O)(=O)c1ccc(F)cc1F [OMIPALISIB],> 30 µM (inactive),,> 30 µM (inactive),> 30 µM (inactive),> 30 µM (inactive),> 30 µM (inactive),> 30 µM (inactive),> 30 µM (inactive)
CCCCCCCCCCCCCCCCCCOP(=O)([O-])OC1CC[N+](C)(C)CC1 [PERIFOSINE],> 30 µM (inactive),,> 30 µM (inactive),> 30 µM (inactive),> 30 µM (inactive),> 30 µM (inactive),> 30 µM (inactive),> 30 µM (inactive)
CN1C/C=C/CCOc2cccc(c2)-c2ccnc(n2)Nc2cccc(c2)C1 [ZOTIRACICLIB],> 30 µM (inactive),,> 30 µM (inactive),> 30 µM (inactive),> 30 µM (inactive),> 30 µM (inactive),> 30 µM (inactive),> 30 µM (inactive)
